Test results from US9637491B2, “Pyrazolo[4,3-D]pyrimidines as kinase inhibitors” (Origenis GmbH, priority 2012, dated 2017).

Molecular target: T1, SYK kinase (Homo sapiens, UniProt P43405)
T1 construct: purchased Invitrogen, Carlsbad
Assay: SYK assay (OMNIA Kinase Assay, Invitrogen)
Assay type: biochemical
Details: SYK Activities; 1 mM ATP, 10 μM Omnia Peptide Substrate Tyr 7, 30° C.
Procedure, shortened: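 SYK was added last to start phosphorylation of a chelation-enhanced SOX peptide substrate (10 μM) in the presence of 1 mM ATP and 0.2 mM DTT at 30° C. Kinetic readings at λex 360/λem 485 nm over 30 min gave velocities, fitted sigmoidally against compound concentration to give IC50.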

| SMILES | IC50 |
| --- | --- |
| CC(C)n1cc(Nc2nc(C3CC3)nc3cn[nH]c23)cn1 [Example 229, 5-cyclopropyl-N-(1-isopropyl-1H-pyrazol-4-yl)-1H-pyrazolo[4,3-d]pyrimidin-7-amine] | < 10 nM |
| COCCCn1cc(Nc2nc(C3CC3)nc3cn[nH]c23)cn1 [Example 230, 5-cyclopropyl-N-(1-(3-methoxypropyl)-1H-pyrazol-4-yl)-1H-pyrazolo[4,3-d]pyrimidin-7-amine] | 10 to 100 nM |
| COCCn1ccc(Nc2nc(C3CC3)nc3cn[nH]c23)cc1=O [Example 231, 4-((5-cyclopropyl-1H-pyrazolo[4,3-d]pyrimidin-7-yl)amino)-1-(2-methoxyethyl)pyridin-2(1H)-one] | 100 to 1000 nM |
| CC(C)Cn1cc(Nc2nc(C3CC3)nc3cn[nH]c23)cn1 [Example 233, 5-cyclopropyl-N-(1-isobutyl-1H-pyrazol-4-yl)-1H-pyrazolo[4,3-d]pyrimidin-7-amine] | 10 to 100 nM |
| CC(C)Cn1cc(Nc2nc(C3CCC3)nc3cn[nH]c23)cn1 [Example 234, 5-cyclobutyl-N-(1-isobutyl-1H-pyrazol-4-yl)-1H-pyrazolo[4,3-d]pyrimidin-7-amine] | 100 to 1000 nM |
| CC(=O)N1CCN(c2ccc(Nc3nc(C4CC4)nc4cn[nH]c34)cn2)CC1 [Example 237, 1-(4-(5-((5-cyclopropyl-1H-pyrazolo[4,3-d]pyrimidin-7-yl)amino)pyridin-2-yl)piperazin-1-yl)ethan-1-one] | 10 to 100 nM |
| CC(C)Cn1cc(Nc2nc(-c3ccco3)nc3cn[nH]c23)cn1 [Example 238, 5-(furan-2-yl)-N-(1-isobutyl-1H-pyrazol-4-yl)-1H-pyrazolo[4,3-d]pyrimidin-7-amine] | 10 to 100 nM |
| OCCn1cc(Nc2nc(-c3ccco3)nc3cn[nH]c23)cn1 [Example 239, 2-(4-((5-(furan-2-yl)-1H-pyrazolo[4,3-d]pyrimidin-7-yl)amino)-1H-pyrazol-1-yl)ethan-1-ol] | < 10 nM |
| CC(C)Cn1cc(Nc2nc(-c3ccoc3)nc3cn[nH]c23)cn1 [Example 240, 5-(furan-3-yl)-N-(1-isobutyl-1H-pyrazol-4-yl)-1H-pyrazolo[4,3-d]pyrimidin-7-amine] | 10 to 100 nM |
| N#CCn1cc(Nc2nc(-c3ccoc3)nc3cn[nH]c23)cn1 [Example 241, 2-(4-((5-(furan-3-yl)-1H-pyrazolo[4,3-d]pyrimidin-7-yl)amino)-1H-pyrazol-1-yl)acetonitrile] | < 10 nM |
| OCCn1cc(Nc2nc(-c3ccoc3)nc3cn[nH]c23)cn1 [Example 242, 2-(4-((5-(furan-3-yl)-1H-pyrazolo[4,3-d]pyrimidin-7-yl)amino)-1H-pyrazol-1-yl)ethan-1-ol] | < 10 nM |
| CC(C)(C)n1cc(Nc2nc(-c3cocn3)nc3cn[nH]c23)cn1 [Example 243, N-(1-(tert-butyl)-1H-pyrazol-4-yl)-5-(oxazol-4-yl)-1H-pyrazolo[4,3-d]pyrimidin-7-amine] | 10 to 100 nM |
| CC(C)n1cc(Nc2nc(-c3cocn3)nc3cn[nH]c23)cn1 [Example 244, N-(1-isopropyl-1H-pyrazol-4-yl)-5-(oxazol-4-yl)-1H-pyrazolo[4,3-d]pyrimidin-7-amine] | < 10 nM |
| COCCCn1cc(Nc2nc(-c3cocn3)nc3cn[nH]c23)cn1 [Example 245, N-(1-(3-methoxypropyl)-1H-pyrazol-4-yl)-5-(oxazol-4-yl)-1H-pyrazolo[4,3-d]pyrimidin-7-amine] | < 10 nM |
| CC(C)Cn1cc(Nc2nc(-c3cocn3)nc3cn[nH]c23)cn1 [Example 246, N-(1-isobutyl-1H-pyrazol-4-yl)-5-(oxazol-4-yl)-1H-pyrazolo[4,3-d]pyrimidin-7-amine] | 10 to 100 nM |
| OCCn1cc(Nc2nc(-c3cocn3)nc3cn[nH]c23)cn1 [Example 247, 2-(4-((5-(oxazol-4-yl)-1H-pyrazolo[4,3-d]pyrimidin-7-yl)amino)-1H-pyrazol-1-yl)ethan-1-ol] | 10 to 100 nM |
| CC(C)(C)n1cc(Nc2nc(-c3ncco3)nc3cn[nH]c23)cn1 [Example 249, N-(1-(tert-butyl)-1H-pyrazol-4-yl)-5-(oxazol-2-yl)-1H-pyrazolo[4,3-d]pyrimidin-7-amine] | 100 to 1000 nM |
| CC(C)n1cc(Nc2nc(-c3ncco3)nc3cn[nH]c23)cn1 [Example 250, N-(1-isopropyl-1H-pyrazol-4-yl)-5-(oxazol-2-yl)-1H-pyrazolo[4,3-d]pyrimidin-7-amine] | 100 to 1000 nM |
| COCCCn1cc(Nc2nc(-c3ncco3)nc3cn[nH]c23)cn1 [Example 251, N-(1-(3-methoxypropyl)-1H-pyrazol-4-yl)-5-(oxazol-2-yl)-1H-pyrazolo[4,3-d]pyrimidin-7-amine] | 100 to 1000 nM |
| CC(C)Cn1cc(Nc2nc(-c3ncco3)nc3cn[nH]c23)cn1 [Example 252, N-(1-isobutyl-1H-pyrazol-4-yl)-5-(oxazol-2-yl)-1H-pyrazolo[4,3-d]pyrimidin-7-amine] | 100 to 1000 nM |
| OCCn1cc(Nc2nc(-c3ncco3)nc3cn[nH]c23)cn1 [Example 253, 2-(4-((5-(oxazol-2-yl)-1H-pyrazolo[4,3-d]pyrimidin-7-yl)amino)-1H-pyrazol-1-yl)ethan-1-ol] | 100 to 1000 nM |
| c1coc(-c2nc(Nc3cnn(C4CCOCC4)c3)c3[nH]ncc3n2)n1 [Example 254, 5-(oxazol-2-yl)-N-(1-(tetrahydro-2H-pyran-4-yl)-1H-pyrazol-4-yl)-1H-pyrazolo[4,3-d]pyrimidin-7-amine] | 100 to 1000 nM |
| CN1CCC(n2cc(Nc3nc(-c4ncco4)nc4cn[nH]c34)cn2)CC1 [Example 255, N-(1-(1-methylpiperidin-4-yl)-1H-pyrazol-4-yl)-5-(oxazol-2-yl)-1H-pyrazolo[4,3-d]pyrimidin-7-amine] | 100 to 1000 nM |
| COCCn1cc(Nc2nc(-c3ncco3)nc3cn[nH]c23)cn1 [Example 256, N-(1-(2-methoxyethyl)-1H-pyrazol-4-yl)-5-(oxazol-2-yl)-1H-pyrazolo[4,3-d]pyrimidin-7-amine] | 100 to 1000 nM |
| CC(=O)N1CCC(n2cc(Nc3nc(-c4ncco4)nc4cn[nH]c34)cn2)CC1 [Example 257, 1-(4-(4-((5-(oxazol-2-yl)-1H-pyrazolo[4,3-d]pyrimidin-7-yl)amino)-1H-pyrazol-1-yl)piperidin-1-yl)ethan-1-one] | 100 to 1000 nM |
| CC(C)(C)n1cc(Nc2nc(-c3cccc(NS(C)(=O)=O)c3)nc3cn[nH]c23)cn1 [Example 258, N-(3-(7-((1-(tert-butyl)-1H-pyrazol-4-yl)amino)-1H-pyrazolo[4,3-d]pyrimidin-5-yl)phenyl)methanesulfonamide] | 100 to 1000 nM |
| CC(C)n1cc(Nc2nc(-c3cccc(NS(C)(=O)=O)c3)nc3cn[nH]c23)cn1 [Example 259, N-(3-(7-((1-isopropyl-1H-pyrazol-4-yl)amino)-1H-pyrazolo[4,3-d]pyrimidin-5-yl)phenyl)methanesulfonamide] | 10 to 100 nM |
| COCCCn1cc(Nc2nc(-c3cccc(NS(C)(=O)=O)c3)nc3cn[nH]c23)cn1 [Example 260, N-(3-(7-((1-(3-methoxypropyl)-1H-pyrazol-4-yl)amino)-1H-pyrazolo[4,3-d]pyrimidin-5-yl)phenyl)methanesulfonamide] | 10 to 100 nM |
| CC(C)Cn1cc(Nc2nc(-c3cccc(NS(C)(=O)=O)c3)nc3cn[nH]c23)cn1 [Example 261, N-(3-(7-((1-isobutyl-1H-pyrazol-4-yl)amino)-1H-pyrazolo[4,3-d]pyrimidin-5-yl)phenyl)methanesulfonamide] | 100 to 1000 nM |
